According to ChEMBL document CHEMBL3991601, “The target landscape of clinical kinase drugs” (Science, 2017):
Active and inactive are the calls of the source. On the calls: in the data inactive means no Kd found up to 30 µM.

Target: G protein-coupled receptor kinase 6 (Homo sapiens, UniProt P43250)
Sequence (P43250 whole entry): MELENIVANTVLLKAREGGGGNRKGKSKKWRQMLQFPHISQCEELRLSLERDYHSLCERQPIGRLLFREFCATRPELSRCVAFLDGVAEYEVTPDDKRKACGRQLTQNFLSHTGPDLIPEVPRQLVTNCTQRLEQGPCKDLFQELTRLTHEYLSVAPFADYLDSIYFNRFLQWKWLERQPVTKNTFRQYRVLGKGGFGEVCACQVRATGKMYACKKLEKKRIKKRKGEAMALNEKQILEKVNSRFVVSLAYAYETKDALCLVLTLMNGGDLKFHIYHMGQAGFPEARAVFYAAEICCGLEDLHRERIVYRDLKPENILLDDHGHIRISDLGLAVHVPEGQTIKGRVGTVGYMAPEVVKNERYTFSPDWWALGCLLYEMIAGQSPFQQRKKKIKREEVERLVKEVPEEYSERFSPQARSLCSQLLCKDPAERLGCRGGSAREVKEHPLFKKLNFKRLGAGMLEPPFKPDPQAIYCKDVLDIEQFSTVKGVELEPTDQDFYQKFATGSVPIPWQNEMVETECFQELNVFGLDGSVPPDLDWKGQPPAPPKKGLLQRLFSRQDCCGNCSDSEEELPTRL

SMILES | Kd
CN1CCN(c2ccc3nc(-c4c(N)c5c(F)cccc5[nH]c4=O)[nH]c3c2)CC1 [DOVITINIB] | > 30 µM (inactive)
O=C1NC(=O)/C(=C/c2ccc3nccc(-c4ccncc4)c3c2)S1 [GSK-1059615] | > 30 µM (inactive)
CC[C@H](Nc1ncnc2[nH]cnc12)c1nc2cccc(F)c2c(=O)n1-c1ccccc1 [IDELALISIB] | > 30 µM (inactive)
Cn1cc(-c2ccc3nnc(C(F)(F)c4ccc5ncccc5c4)n3n2)cn1 [JNJ-38877605] | > 30 µM (inactive)

Target: T1, Eukaryotic translation initiation factor 5B (Homo sapiens, UniProt O60841)
T1 sequence (O60841 whole entry): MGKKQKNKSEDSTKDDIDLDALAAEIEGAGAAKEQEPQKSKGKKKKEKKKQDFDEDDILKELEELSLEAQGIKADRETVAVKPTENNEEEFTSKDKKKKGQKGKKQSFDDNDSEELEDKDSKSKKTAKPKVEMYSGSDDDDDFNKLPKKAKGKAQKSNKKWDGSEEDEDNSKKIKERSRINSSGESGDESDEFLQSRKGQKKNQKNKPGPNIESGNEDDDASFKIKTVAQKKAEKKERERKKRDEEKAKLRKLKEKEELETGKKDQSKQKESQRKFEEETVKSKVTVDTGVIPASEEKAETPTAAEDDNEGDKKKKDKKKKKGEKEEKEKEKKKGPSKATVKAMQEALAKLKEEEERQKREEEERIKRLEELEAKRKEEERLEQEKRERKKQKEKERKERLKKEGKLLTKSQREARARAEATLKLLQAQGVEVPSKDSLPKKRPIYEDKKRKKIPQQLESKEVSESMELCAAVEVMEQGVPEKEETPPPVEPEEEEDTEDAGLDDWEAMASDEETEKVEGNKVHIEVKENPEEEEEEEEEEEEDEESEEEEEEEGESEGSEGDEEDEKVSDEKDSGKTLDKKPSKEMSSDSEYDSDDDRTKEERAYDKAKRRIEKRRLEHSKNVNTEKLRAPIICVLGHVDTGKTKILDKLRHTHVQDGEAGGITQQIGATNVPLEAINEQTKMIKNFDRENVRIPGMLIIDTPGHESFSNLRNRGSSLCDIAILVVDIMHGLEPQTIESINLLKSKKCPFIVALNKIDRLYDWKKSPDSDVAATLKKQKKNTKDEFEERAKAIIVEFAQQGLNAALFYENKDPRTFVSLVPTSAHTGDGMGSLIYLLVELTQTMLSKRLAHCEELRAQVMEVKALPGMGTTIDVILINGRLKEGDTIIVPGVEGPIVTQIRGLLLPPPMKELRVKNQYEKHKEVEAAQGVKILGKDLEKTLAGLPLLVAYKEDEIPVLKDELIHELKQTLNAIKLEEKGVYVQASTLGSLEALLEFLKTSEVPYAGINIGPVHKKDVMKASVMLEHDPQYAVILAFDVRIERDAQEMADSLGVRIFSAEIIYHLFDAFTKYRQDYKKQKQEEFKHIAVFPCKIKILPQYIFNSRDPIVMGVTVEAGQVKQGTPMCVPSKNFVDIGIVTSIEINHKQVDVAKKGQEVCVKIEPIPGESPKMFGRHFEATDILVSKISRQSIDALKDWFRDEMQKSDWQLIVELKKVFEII

SMILES | Kd
CC[C@H](Nc1ncnc2[nH]cnc12)c1nc2cccc(F)c2c(=O)n1-c1ccccc1 [IDELALISIB] | > 30 µM (inactive)
Cn1cc(-c2ccc3nnc(C(F)(F)c4ccc5ncccc5c4)n3n2)cn1 [JNJ-38877605] | > 30 µM (inactive)

Target: Myosin-10 (Homo sapiens, UniProt P35580)
Sequence (P35580 whole entry): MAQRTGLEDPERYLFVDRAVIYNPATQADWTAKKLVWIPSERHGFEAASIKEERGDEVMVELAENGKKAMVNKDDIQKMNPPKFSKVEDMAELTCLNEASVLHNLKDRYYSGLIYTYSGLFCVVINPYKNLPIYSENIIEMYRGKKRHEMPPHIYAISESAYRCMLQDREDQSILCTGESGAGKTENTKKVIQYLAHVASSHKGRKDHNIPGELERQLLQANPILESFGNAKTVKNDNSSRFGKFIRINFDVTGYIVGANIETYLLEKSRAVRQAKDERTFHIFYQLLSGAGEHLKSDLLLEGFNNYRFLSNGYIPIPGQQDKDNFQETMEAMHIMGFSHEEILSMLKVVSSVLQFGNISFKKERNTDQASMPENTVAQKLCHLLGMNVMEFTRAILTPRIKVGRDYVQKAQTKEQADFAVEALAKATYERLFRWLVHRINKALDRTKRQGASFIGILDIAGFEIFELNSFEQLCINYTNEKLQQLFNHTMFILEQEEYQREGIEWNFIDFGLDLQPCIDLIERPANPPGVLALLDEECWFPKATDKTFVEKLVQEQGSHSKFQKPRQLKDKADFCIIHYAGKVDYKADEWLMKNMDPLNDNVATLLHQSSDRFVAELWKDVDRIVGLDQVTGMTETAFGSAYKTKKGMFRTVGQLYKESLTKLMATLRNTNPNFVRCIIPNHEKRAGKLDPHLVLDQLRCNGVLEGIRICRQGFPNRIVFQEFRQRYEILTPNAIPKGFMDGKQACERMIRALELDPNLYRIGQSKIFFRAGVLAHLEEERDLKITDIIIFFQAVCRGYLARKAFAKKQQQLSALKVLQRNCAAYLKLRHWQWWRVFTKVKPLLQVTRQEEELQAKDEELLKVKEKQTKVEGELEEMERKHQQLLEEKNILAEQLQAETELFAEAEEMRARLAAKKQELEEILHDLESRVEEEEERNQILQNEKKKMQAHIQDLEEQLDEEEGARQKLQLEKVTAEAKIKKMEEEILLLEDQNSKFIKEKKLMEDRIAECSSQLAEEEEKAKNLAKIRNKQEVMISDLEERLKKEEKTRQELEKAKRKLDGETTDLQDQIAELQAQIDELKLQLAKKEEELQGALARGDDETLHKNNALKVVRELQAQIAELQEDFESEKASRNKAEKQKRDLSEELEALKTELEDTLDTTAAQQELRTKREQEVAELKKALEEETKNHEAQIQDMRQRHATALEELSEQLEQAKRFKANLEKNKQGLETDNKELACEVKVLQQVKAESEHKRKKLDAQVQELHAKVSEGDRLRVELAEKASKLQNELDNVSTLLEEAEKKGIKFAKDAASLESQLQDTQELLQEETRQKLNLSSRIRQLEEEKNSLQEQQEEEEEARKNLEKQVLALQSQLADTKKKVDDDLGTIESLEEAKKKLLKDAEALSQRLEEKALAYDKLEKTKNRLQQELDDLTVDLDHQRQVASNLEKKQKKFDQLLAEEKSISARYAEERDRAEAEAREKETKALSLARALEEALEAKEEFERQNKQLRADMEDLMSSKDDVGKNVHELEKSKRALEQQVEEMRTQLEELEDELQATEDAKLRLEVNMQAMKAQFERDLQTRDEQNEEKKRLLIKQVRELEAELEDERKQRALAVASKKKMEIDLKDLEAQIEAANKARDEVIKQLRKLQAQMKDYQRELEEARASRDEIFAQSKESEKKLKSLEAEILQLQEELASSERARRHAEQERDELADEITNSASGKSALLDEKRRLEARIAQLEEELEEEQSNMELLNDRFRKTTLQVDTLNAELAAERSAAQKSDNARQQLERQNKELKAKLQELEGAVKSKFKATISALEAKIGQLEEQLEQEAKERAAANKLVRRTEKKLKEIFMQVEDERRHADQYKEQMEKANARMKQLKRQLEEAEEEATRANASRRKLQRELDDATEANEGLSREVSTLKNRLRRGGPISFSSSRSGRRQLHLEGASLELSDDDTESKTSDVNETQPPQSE

SMILES | Kd
CN1CCN(c2ccc3nc(-c4c(N)c5c(F)cccc5[nH]c4=O)[nH]c3c2)CC1 [DOVITINIB] | > 30 µM (inactive)
O=C1NC(=O)/C(=C/c2ccc3nccc(-c4ccncc4)c3c2)S1 [GSK-1059615] | > 30 µM (inactive)
Cn1cc(-c2ccc3nnc(C(F)(F)c4ccc5ncccc5c4)n3n2)cn1 [JNJ-38877605] | > 30 µM (inactive)

Target: PAS domain-containing serine/threonine-protein kinase (Homo sapiens, UniProt Q96RG2)
Sequence (Q96RG2 whole entry, the tested form may be a part): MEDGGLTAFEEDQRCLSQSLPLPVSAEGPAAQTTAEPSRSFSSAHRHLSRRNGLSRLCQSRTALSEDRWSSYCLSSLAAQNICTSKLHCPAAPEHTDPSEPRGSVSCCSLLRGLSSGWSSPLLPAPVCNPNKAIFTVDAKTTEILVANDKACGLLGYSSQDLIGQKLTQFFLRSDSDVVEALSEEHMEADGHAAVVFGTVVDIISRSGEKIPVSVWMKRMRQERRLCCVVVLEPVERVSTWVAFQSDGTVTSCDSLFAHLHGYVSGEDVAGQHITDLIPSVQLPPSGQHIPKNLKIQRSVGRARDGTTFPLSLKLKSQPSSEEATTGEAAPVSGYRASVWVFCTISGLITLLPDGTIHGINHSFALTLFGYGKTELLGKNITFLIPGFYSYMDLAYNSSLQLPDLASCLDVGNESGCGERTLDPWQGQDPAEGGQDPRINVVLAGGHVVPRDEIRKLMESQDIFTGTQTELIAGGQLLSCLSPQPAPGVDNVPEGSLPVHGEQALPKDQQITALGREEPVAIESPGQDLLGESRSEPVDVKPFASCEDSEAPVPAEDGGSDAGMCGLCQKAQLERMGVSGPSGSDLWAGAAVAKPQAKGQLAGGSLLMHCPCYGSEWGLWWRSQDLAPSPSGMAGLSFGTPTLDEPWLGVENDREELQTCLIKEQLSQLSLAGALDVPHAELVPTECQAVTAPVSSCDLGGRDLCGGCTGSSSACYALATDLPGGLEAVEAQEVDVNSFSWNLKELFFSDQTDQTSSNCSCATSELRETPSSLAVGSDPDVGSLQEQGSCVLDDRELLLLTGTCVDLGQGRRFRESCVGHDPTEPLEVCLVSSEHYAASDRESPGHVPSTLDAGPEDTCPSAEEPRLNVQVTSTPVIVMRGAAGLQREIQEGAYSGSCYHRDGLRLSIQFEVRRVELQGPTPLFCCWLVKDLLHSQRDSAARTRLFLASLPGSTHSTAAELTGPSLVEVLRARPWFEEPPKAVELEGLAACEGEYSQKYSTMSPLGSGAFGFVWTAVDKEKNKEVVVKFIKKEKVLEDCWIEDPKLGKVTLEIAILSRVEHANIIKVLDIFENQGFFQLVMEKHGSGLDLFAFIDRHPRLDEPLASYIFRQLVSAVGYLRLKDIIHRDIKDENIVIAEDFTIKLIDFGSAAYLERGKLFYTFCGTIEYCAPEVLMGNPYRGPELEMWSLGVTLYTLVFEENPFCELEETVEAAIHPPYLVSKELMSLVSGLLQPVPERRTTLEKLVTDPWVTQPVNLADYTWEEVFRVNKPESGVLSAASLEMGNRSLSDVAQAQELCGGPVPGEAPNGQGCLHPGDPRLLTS

SMILES | Kd
CN1CCN(c2ccc3nc(-c4c(N)c5c(F)cccc5[nH]c4=O)[nH]c3c2)CC1 [DOVITINIB] | > 30 µM (inactive)
CC[C@H](Nc1ncnc2[nH]cnc12)c1nc2cccc(F)c2c(=O)n1-c1ccccc1 [IDELALISIB] | > 30 µM (inactive)
Cn1cc(-c2ccc3nnc(C(F)(F)c4ccc5ncccc5c4)n3n2)cn1 [JNJ-38877605] | > 30 µM (inactive)

Target: T2, Adenine phosphoribosyltransferase (Homo sapiens, UniProt P07741)
T2 sequence (P07741 whole entry): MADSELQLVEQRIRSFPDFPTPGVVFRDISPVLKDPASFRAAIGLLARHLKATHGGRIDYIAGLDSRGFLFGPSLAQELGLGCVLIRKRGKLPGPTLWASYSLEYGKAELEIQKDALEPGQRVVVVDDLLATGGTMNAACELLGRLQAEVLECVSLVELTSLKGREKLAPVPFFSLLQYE

SMILES | Kd
CC[C@H](Nc1ncnc2[nH]cnc12)c1nc2cccc(F)c2c(=O)n1-c1ccccc1 [IDELALISIB] | > 30 µM (inactive)
Cn1cc(-c2ccc3nnc(C(F)(F)c4ccc5ncccc5c4)n3n2)cn1 [JNJ-38877605] | > 30 µM (inactive)

Target: Dual specificity testis-specific protein kinase 2 (Homo sapiens, UniProt Q96S53)
Sequence (Q96S53 whole entry): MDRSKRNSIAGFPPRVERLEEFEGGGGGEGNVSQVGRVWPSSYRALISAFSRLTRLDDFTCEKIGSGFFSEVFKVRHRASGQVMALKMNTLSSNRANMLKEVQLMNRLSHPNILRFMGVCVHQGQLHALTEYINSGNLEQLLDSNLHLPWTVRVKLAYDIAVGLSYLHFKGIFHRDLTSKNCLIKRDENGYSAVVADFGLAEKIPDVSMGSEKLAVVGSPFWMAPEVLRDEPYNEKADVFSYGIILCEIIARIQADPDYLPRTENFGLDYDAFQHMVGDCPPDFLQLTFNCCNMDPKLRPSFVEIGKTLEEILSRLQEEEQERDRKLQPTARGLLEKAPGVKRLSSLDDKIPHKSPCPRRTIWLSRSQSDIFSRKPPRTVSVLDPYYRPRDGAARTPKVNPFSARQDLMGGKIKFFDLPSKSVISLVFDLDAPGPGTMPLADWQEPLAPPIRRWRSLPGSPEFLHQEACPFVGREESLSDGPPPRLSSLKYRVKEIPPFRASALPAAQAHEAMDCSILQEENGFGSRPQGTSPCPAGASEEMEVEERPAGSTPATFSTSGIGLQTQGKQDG

SMILES | Kd
CN1CCN(c2ccc3nc(-c4c(N)c5c(F)cccc5[nH]c4=O)[nH]c3c2)CC1 [DOVITINIB] | > 30 µM (inactive)
O=C1NC(=O)/C(=C/c2ccc3nccc(-c4ccncc4)c3c2)S1 [GSK-1059615] | > 30 µM (inactive)
CC[C@H](Nc1ncnc2[nH]cnc12)c1nc2cccc(F)c2c(=O)n1-c1ccccc1 [IDELALISIB] | > 30 µM (inactive)
Cn1cc(-c2ccc3nnc(C(F)(F)c4ccc5ncccc5c4)n3n2)cn1 [JNJ-38877605] | > 30 µM (inactive)

Target: Serine/threonine-protein kinase 24 (Homo sapiens, UniProt Q9Y6E0)

SMILES | Kd
O=C1NC(=O)/C(=C/c2ccc3nccc(-c4ccncc4)c3c2)S1 [GSK-1059615] | > 30 µM (inactive)
CC[C@H](Nc1ncnc2[nH]cnc12)c1nc2cccc(F)c2c(=O)n1-c1ccccc1 [IDELALISIB] | > 30 µM (inactive)

Target: Uncharacterized aarF domain-containing protein kinase 5 (Homo sapiens, UniProt Q3MIX3)
Sequence (Q3MIX3 whole entry, the tested form may be a part): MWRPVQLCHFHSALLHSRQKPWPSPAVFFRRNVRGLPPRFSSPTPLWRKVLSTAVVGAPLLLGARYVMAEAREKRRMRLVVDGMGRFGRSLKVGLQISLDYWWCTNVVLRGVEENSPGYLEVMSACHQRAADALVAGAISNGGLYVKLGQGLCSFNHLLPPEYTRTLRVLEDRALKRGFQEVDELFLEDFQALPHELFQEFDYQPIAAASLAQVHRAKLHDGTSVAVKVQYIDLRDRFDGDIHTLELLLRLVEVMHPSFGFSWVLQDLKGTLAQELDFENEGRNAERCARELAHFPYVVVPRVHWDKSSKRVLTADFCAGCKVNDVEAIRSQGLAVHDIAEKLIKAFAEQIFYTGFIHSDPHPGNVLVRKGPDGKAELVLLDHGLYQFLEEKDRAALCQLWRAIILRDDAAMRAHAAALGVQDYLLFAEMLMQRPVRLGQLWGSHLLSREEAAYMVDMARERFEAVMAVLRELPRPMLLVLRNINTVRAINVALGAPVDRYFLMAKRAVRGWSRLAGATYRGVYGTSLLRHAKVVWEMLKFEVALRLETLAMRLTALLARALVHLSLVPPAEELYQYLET

SMILES | Kd
CN1CCN(c2ccc3nc(-c4c(N)c5c(F)cccc5[nH]c4=O)[nH]c3c2)CC1 [DOVITINIB] | > 30 µM (inactive)
O=C1NC(=O)/C(=C/c2ccc3nccc(-c4ccncc4)c3c2)S1 [GSK-1059615] | > 30 µM (inactive)
CC[C@H](Nc1ncnc2[nH]cnc12)c1nc2cccc(F)c2c(=O)n1-c1ccccc1 [IDELALISIB] | > 30 µM (inactive)
Cn1cc(-c2ccc3nnc(C(F)(F)c4ccc5ncccc5c4)n3n2)cn1 [JNJ-38877605] | > 30 µM (inactive)

Target: T3, ATP-dependent RNA helicase DHX30 (Homo sapiens, UniProt Q7L2E3)
T3 sequence (Q7L2E3 whole entry): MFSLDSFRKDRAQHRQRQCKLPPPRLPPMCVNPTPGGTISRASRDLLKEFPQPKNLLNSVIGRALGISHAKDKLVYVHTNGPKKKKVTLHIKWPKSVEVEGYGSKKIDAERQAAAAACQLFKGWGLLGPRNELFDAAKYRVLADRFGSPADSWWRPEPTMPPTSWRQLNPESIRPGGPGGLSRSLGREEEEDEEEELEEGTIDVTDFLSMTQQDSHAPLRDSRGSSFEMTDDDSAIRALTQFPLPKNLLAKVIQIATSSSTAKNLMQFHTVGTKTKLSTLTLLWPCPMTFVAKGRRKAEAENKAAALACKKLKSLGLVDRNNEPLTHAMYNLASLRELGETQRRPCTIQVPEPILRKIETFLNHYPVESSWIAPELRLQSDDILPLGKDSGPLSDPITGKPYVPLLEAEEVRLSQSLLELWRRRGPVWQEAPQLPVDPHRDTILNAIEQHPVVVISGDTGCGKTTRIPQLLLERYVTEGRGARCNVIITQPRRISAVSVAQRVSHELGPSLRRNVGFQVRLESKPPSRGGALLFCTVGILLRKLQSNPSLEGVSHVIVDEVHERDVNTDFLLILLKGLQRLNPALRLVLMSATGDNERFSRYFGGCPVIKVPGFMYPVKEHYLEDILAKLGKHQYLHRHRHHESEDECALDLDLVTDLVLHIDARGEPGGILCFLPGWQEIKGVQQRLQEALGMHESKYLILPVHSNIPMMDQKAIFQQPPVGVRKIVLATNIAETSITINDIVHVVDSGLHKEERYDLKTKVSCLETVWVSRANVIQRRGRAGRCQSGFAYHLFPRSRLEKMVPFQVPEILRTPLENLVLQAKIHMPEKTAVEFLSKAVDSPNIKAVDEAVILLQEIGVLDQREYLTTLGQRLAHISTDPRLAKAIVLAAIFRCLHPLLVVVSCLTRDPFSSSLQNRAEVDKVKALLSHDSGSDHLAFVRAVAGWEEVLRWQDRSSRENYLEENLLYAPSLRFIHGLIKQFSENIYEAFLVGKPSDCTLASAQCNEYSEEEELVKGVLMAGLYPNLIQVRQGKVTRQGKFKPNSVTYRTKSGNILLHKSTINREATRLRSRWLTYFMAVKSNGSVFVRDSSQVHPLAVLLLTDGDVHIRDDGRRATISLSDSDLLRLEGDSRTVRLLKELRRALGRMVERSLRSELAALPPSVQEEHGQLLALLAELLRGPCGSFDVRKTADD

SMILES | Kd
CN1CCN(c2ccc3nc(-c4c(N)c5c(F)cccc5[nH]c4=O)[nH]c3c2)CC1 [DOVITINIB] | > 30 µM (inactive)
O=C1NC(=O)/C(=C/c2ccc3nccc(-c4ccncc4)c3c2)S1 [GSK-1059615] | > 30 µM (inactive)
CC[C@H](Nc1ncnc2[nH]cnc12)c1nc2cccc(F)c2c(=O)n1-c1ccccc1 [IDELALISIB] | > 30 µM (inactive)
Cn1cc(-c2ccc3nnc(C(F)(F)c4ccc5ncccc5c4)n3n2)cn1 [JNJ-38877605] | > 30 µM (inactive)

Target: Obg-like ATPase 1 (Homo sapiens, UniProt Q9NTK5)

SMILES | Kd
CN1CCN(c2ccc3nc(-c4c(N)c5c(F)cccc5[nH]c4=O)[nH]c3c2)CC1 [DOVITINIB] | > 30 µM (inactive)
O=C1NC(=O)/C(=C/c2ccc3nccc(-c4ccncc4)c3c2)S1 [GSK-1059615] | > 30 µM (inactive)
